Test results as given in patent publication US20060084697A1, “Pi3k antagonists as radiosensitizers” (priority 2002, published 2006).

Tests used:
[1] = test system: HUVEC cells; test: Apoptotic nuclei in HUVEC, H&E staining; type: cell-based, human; conditions: wortmannin 4 nM or LY294002 2 μM, 24 hours
Procedure: To determine whether PI3K antagonists enhance the activities of intrinsic cell death mechanisms induced by irradiation, apoptosis in HUVEC cells was studied following PI3K inhibition. HUVEC cells were treated with wortmannin (4 nM) or with LY294002 (2 μM) as described in Example 2. Cells were treated 30 minutes later with 3 Gy of ionizing radiation. Cultures were stained 24 hours later with hematoxylin and eosin (H&E) to reveal apoptotic nuclei. Stained cells were then examined by light microscopy. For each treatment group, four high power fields (40× objective) were examined, and both the number of cells with apoptotic nuclei and the total number of cells were determined. From these numbers, the percentage of apoptotic cells for each group was calculated.

[2] = test system: GL261 tumor blood vessels; test: Tumor vascular window model, vascular length density, GL261; type: in vivo, mouse
Procedure: Penicillin/streptomycin solution (200 μl; available from GIBCO™ Invitrogen Corporation of Carlsbad, Calif., United States of America) was injected into the hind limb of the mouse prior to preparation of the window chamber. The dorsal skin fold window chamber (Leunig et al., 1992) was prepared using a 3-gram plastic frame, which was applied to the skin of a test animal and remained attached for the duration of the study. To prepare a test animal for application of the plastic frame, the dorsal midline was found along the animal's back, and a clip was placed to hold the skin in position. […] Scanned slides were analyzed using IMAGE-PRO® software (Media Cybernetics, Silver Spring, Md., United States of America) as described below. […] Tumor blood vessels were quantified using IMAGE-PRO® software, which quantified the vascular length density of blood vessel within the microscopic field. The mean vascular length density and the standard error of the mean were calculated for each treatment group. The mean and 95% confidence intervals of vascular length density for each treatment group were calculated and variance was analyzed by the General Linear Models and Bonferroni t test. […] The mean vascular length densities of treatment group were determined at 0 hours, which was the time at which the radiation treatments were commenced. […]

[3] = test system: GL261 glioma tumors; test: Power Doppler sonography of tumor blood flow, GL261 hind limb tumors; type: in vivo, C57BL/6J mice
From the text: Power Doppler sonography was used to study the response of tumor blood vessels to ionizing radiation. This method utilizes amplitude to measure blood flow in microvasculature. Tumors were imaged with a 10-5 MHz ENTOS® linear probe (Advanced Technology Laboratories, Inc., Bothell, Wash., United States of America) attached to an HDI® 5000 diagnostic ultrasound system (Advanced Technology Laboratories, Inc.). Power Doppler sonography images were obtained with the power gain set to 82%. Care was taken to minimize motion artifact. A 20-frame cineloop sweep of the entire tumor was obtained with the probe perpendicular to the long axis of the lower extremity along the entire length of the tumor. The images were analyzed using HDI® software (Advanced Technology Laboratories, Inc). This software allows direct evaluation of Power Doppler cineloop raw data. Color area was recorded for the entire tumor. Five mice were included in each treatment group. Values for color area were averaged for each tumor set and treated groups were compared to controls using the unpaired student t-test. GL261 glioma tumors were implanted in the hind limb of C57BL/6J mice as described in […] et al., 1998. […] Power Doppler analysis of tumor blood flow was measured on day 0, day 3, and day 7 after radiation treatment. […]

[4] = test system: GL261 tumors; test: Tumor volume assessment, growth delay, GL261; type: in vivo, C57BL/6 mice
Procedure: GL261 tumors were generated by subcutaneous injection of 10^6 cells into the right thighs of C57BL/6 mice as described in Example 6. […] An equal number of large and intermediate size tumors were present in each group. GL261 tumor-bearing mice were treated with 24 Gy ionizing radiation administered in 8 fractionated doses over 10 days. LY294002 was administered at 3 mg/kg by intraperitoneal injection 15 minutes prior to irradiation on days 1, 3, 5, and 7 of radiation therapy. Control mice received identical doses and schedules of either LY294002 alone or radiation alone. Twice each week, tumor volumes were measured using skin calipers as previously described (Grugel et al., 1995; […] et al., 1998; Staba et al., 1998). Briefly, tumor volumes were calculated using the formula: a×b×c/2, where a=maximal width dimension, b=maximal length dimension, and c=maximal depth dimension, which was derived from the formula for calculating the volume of an ellipsoid (πd^3/6). Data were calculated as the percent of original (day 0) tumor volume and graphed as fractional tumor volume plus or minus one standard deviation for each treatment group. Growth delay was defined as the number of days required for tumors to reach a volume of 1 cm^3. Untreated control tumors reached 1 cm^3 at 7 days.

SMILES: O=c1cc(N2CCOCC2)oc2c(-c3ccccc3)cccc12 [LY294002, 2-(4-Morpholinyl)-8-phenyl-4H-1-benzopyran-4-one]
- apoptotic nuclei, % of cells ([1]; HUVEC pretreated 30 minutes before 3 Gy): 16%
- apoptotic cells ([1]; unirradiated HUVEC): 2%
- mean vascular length density at 96 hours, % of 0 hour ([2]; 3 mg/Kg intraperitoneally 15 minutes prior to 3 Gy): 5%
- mean vascular length density at 96 hours, % of 0 hour ([2]; 3 mg/Kg intraperitoneally, no radiation, p=0.41): 85%
- tumor blood flow ([3]; LY294002 alone): unchanged
- tumor blood flow ([3]; LY294002 prior to 3 Gy irradiation): obliterated
- growth delay: days for tumors to reach 1 cm^3 ([4]; 3 mg/kg i.p. 15 minutes prior to irradiation on days 1, 3, 5, 7, 24 Gy in 8 fractions): > 15 days
- growth delay: days for tumors to reach 1 cm^3 ([4]; 3 mg/kg i.p. on days 1, 3, 5, 7, alone, untreated 7 days): 9 days
